Measured values reported in paper PMC4728126, “Stable G protein-effector complexes in striatal neurons: mechanism of assembly and role in neurotransmitter signaling” (eLife, 2015).

Molecular target: T1, D1R (Homo sapiens, UniProt P21728)
T1 construct: gene DRD1; cDNA from Missouri S&T cDNA Resource Center, transiently expressed in HEK293T/17 with Golf (Gαolf, Venus-Gβ2γ7), Ric-8B and masGRK3ct-Nluc BRET reporter
Experiment: BRET G protein activation assay (masGRK3ct-Nluc / Venus-Gβ[…]γ[…]), HEK293T/[…]
Type: cell-based
Settings: antagonist, […], against […] dopamine; Golf co-expressed

T1 sequence (P21728 whole entry): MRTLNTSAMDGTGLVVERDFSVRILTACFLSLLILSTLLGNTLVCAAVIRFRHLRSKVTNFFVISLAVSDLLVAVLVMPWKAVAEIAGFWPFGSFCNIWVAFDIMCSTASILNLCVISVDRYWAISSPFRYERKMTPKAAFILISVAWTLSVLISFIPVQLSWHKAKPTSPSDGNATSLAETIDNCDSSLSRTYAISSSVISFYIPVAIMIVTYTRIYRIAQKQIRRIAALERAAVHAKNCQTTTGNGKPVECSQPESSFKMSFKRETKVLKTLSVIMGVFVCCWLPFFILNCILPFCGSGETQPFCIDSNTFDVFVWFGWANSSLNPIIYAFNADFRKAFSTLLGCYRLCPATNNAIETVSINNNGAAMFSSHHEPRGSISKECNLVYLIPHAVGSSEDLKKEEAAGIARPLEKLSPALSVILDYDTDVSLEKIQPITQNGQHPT

CN1CCc2cc(Cl)c(O)cc2[C@H]2c3ccccc3CC[C@@H]21 [SCH39166]
BRET G protein activation assay (masGRK3ct-Nluc / Venus-Gβ2γ7), HEK293T/17: application of an antagonist SCH39166 facilitates complex re-association and quenching of the BRET response
